SMILES strings stand for the structures. In brackets after ≈: the same amount, converted by molar mass.

The subject of one experiment is Human alphaherpesvirus 3. The experiment in a line: Minimum inhibitory concentration required to reduce VZV induced cytopathogenicity by 50%. It counts as functional.
For experiment [1], the system named is Mammalian orthoreovirus 1. As to the kind of experiment: Minimum inhibitory concentration required to reduce Reo virus-1 induced cytopathogenicity by 50%. Type of experiment: functional, reo virus type 1. A general note: Damage to the host cells serves as the signal in cytopathic effect assays.
Another experiment has as its system Human betaherpesvirus 5. As to the kind of experiment: Minimum inhibitory concentration required to reduce HCMV induced cytopathogenicity by 50%. Type of experiment: functional.
In experiment [2] the test system is Vesicular stomatitis virus. As to the kind of experiment: Minimum inhibitory concentration required to reduce Vesicular stomatitis virus induced cytopathogenicity by 50%. It counts as functional.
The test system of experiment [3] is Human immunodeficiency virus 2. The experiment in a line: Minimum inhibitory concentration required to reduce HIV-2 induced cytopathogenicity by 50%. Type of experiment: functional.
Another experiment relates to Human respirovirus 3. As to the kind of experiment: Minimum inhibitory concentration required to reduce Parainfluenza-3 virus induced cytopathogenicity by 50%. Type of experiment: functional.
A further experiment deals with Punta Toro virus. The experiment in a line: Minimum inhibitory concentration required to reduce Punta Toro virus induced cytopathogenicity by 50%. Type of experiment: functional.
Another experiment deals with Sindbis virus. As to the kind of experiment: Minimum inhibitory concentration required to reduce Sindbis virus induced cytopathogenicity by 50%. Type of experiment: functional.
For experiment [4], the system named is Human immunodeficiency virus 1. As to the kind of experiment: Minimum inhibitory concentration required to reduce HIV-1 induced cytopathogenicity by 50%. Type of experiment: functional.
In experiment [5] the test system is Respiratory syncytial virus. As to the kind of experiment: Minimum inhibitory concentration required to reduce Respiratory syncytial virus induced cytopathogenicity by 50%. It counts as functional. The settings on record: human respiratory syncytial virus.
A further experiment relates to Human alphaherpesvirus 2. The experiment in a line: Minimum inhibitory concentration required to reduce HSV-2 induced cytopathogenicity by 50%. Type of experiment: functional.
The test system of a further experiment is Coxsackievirus B4. As to the kind of experiment: Minimum inhibitory concentration required to reduce Coxsackie B4 virus induced cytopathogenicity by 50%. Type of experiment: functional. The settings on record: Enterovirus B.
In experiment [6] the test system is Human alphaherpesvirus 1. The experiment in a line: Minimum inhibitory concentration required to reduce HSV-1(KOS) induced cytopathogenicity by 50%. It counts as functional.
Experiment [7] has as its system Human alphaherpesvirus 1. As to the kind of experiment: Minimum inhibitory concentration required to reduce HSV-1 induced cytopathogenicity by 50%. Type of experiment: functional.

Consider `Cc1cn([C@@H]2S[C@@H](CO)[C@H](O)[C@H]2O)c(=O)[nH]c1=O`, for which the MIC (against Human alphaherpesvirus 3; in experiment [1]; in the experiment with Human betaherpesvirus 5; in [2]; in experiment [3]; in the experiment on Human respirovirus 3) was 400 µg/mL (≈ 1460 µM) throughout. The MIC (against Punta Toro virus; with Sindbis virus; in [4]; in experiment [5]; against Human alphaherpesvirus 2; in the experiment on Coxsackievirus B4) was 400 µg/mL (≈ 1460 µM) throughout. This molecule also gave an MIC with Human alphaherpesvirus 1 [6] of 48 µg/mL (≈ 175 µM).

In the case of `Cc1cn([C@H]2S[C@@H](CO)[C@H](O)[C@H]2O)c(=O)[nH]c1=O`, the MIC (against Human alphaherpesvirus 3; in experiment [1]; in the experiment with Human betaherpesvirus 5; in experiment [2]; in experiment [3]; against Human respirovirus 3) was 400 µg/mL (≈ 1460 µM) throughout. The MIC (with Punta Toro virus; with Sindbis virus; in [4]; in experiment [5]; against Human alphaherpesvirus 1 [7]; in the experiment on Human alphaherpesvirus 2) was 400 µg/mL (≈ 1460 µM) each time. In the experiment with Coxsackievirus B4, this molecule returned an MIC of 400 µg/mL (≈ 1460 µM).

Turning to `Nc1ccn(C2S[C@@H](CO)[C@H](O)[C@H]2O)c(=O)n1` (stereo not given in full), the MIC (with Human alphaherpesvirus 3; in experiment [1]; with Human betaherpesvirus 5; in experiment [2]; in [3]; with Human respirovirus 3) was 400 µg/mL (≈ 1540 µM) throughout. Moreover, the MIC (against Punta Toro virus; against Sindbis virus; in experiment [4]; in [5]; in the experiment with Human alphaherpesvirus 1 [7]; in the experiment on Human alphaherpesvirus 2) was 400 µg/mL (≈ 1540 µM) throughout. The MIC with Coxsackievirus B4 turned out to be 400 µg/mL (≈ 1540 µM).

Take `Nc1ncnc2c1ncn2[C@H]1S[C@@H](CO)[C@H](O)[C@H]1O`: the MIC with Human alphaherpesvirus 3 came out at 400 µg/mL (≈ 1410 µM); in experiment [1], 48 µg/mL (≈ 169 µM); with Human betaherpesvirus 5 it was 400 µg/mL (≈ 1410 µM); in experiment [2], 400 µg/mL (≈ 1410 µM); in experiment [3], 400 µg/mL (≈ 1410 µM); against Human respirovirus 3, 400 µg/mL (≈ 1410 µM). Moreover, the MIC (against Punta Toro virus; with Sindbis virus; in [4]; in [5]; against Human alphaherpesvirus 1 [7]; against Human alphaherpesvirus 2) was 400 µg/mL (≈ 1410 µM) each time. In the experiment with Coxsackievirus B4, this molecule returned an MIC of 400 µg/mL (≈ 1410 µM).

For the molecule `O=c1ccn([C@H]2S[C@@H](CO)[C@H](O)[C@H]2O)c(=O)[nH]1`, the MIC (in the experiment with Human alphaherpesvirus 3; in experiment [1]; with Human betaherpesvirus 5; in experiment [2]; in [3]; with Human respirovirus 3) was 400 µg/mL (≈ 1540 µM) in each case. Also, the MIC (in the experiment with Punta Toro virus; with Sindbis virus; in experiment [4]; in [5]; in the experiment on Human alphaherpesvirus 2; in the experiment on Coxsackievirus B4) was 400 µg/mL (≈ 1540 µM) in each case. For the same molecule, the MIC against Human alphaherpesvirus 1 [6] was found to be 48 µg/mL (≈ 184 µM).

For the origin of these results see ChEMBL document CHEMBL1134025, “Thiosugars. Part 9: synthesis and biological evaluation of some 4'-thio-L-arabino nucleoside analogues” (2001).
